The text below walks through data of ChEMBL document CHEMBL3627657, “Design, synthesis, biological evaluation and docking study of 4-isochromanone hybrids bearing N-benzyl pyridinium moiety as dual binding site acetylcholinesterase inhibitors” (Bioorg Med Chem Lett, 2015).

Activity calls are given as the source filed them. No cut-off for these calls is given here.

What is called logP is a log measure of how a compound divides between an organic and an aqueous phase. High values mean a more lipophilic compound, low ones a more hydrophilic compound. By IC50 is commonly meant the point on the concentration scale where inhibition reaches its midpoint. A low value points to inhibition by little substance. For orientation: logD means lipophilicity at a set pH, counting ionised and neutral species. The low end stands for a more hydrophilic compound, the high end for a more lipophilic compound. By pKa is commonly meant the pH at which an ionisable group is half protonated.

A short description of series [1]: Lipophilicity, log P of the compound by UV-metric/potentiometric method. Type of series: physicochemical. The settings on record: octanol/water.
Series [2] in a line: Selectivity index, ratio of IC50 for equine serum BuChE to IC50 for electric eel AChE.
Another series deals with Acetylcholinesterase (Electrophorus electricus, UniProt O42275). The experiment in a line: Inhibition of electric eel AChE using […] as substrate by Ellman's method. For orientation: Ellman's reagent forms a yellow product with free thiols.
Series [3] is described as follows: Lipophilicity, log D of the compound at pH 7.4 by UV-metric/potentiometric method. The settings on record: buffer. Type of series: physicochemical.
A further series has as its target Cholinesterase (Equus caballus, UniProt P81908).
Series [4] can be described thus: Dissociation constant, pKa of the compound by UV-metric/potentiometric method. Type of series: physicochemical.
For series [5], the target named is Acetylcholinesterase (Electrophorus electricus) (UniProt O42275). The experiment in a line: Mixed type inhibition of electric eel AChE using […] as substrate by Lineweaver-Burk plot analysis.
Acetylcholinesterase (Electrophorus electricus), sequence (O42275 24-633 limits assumed): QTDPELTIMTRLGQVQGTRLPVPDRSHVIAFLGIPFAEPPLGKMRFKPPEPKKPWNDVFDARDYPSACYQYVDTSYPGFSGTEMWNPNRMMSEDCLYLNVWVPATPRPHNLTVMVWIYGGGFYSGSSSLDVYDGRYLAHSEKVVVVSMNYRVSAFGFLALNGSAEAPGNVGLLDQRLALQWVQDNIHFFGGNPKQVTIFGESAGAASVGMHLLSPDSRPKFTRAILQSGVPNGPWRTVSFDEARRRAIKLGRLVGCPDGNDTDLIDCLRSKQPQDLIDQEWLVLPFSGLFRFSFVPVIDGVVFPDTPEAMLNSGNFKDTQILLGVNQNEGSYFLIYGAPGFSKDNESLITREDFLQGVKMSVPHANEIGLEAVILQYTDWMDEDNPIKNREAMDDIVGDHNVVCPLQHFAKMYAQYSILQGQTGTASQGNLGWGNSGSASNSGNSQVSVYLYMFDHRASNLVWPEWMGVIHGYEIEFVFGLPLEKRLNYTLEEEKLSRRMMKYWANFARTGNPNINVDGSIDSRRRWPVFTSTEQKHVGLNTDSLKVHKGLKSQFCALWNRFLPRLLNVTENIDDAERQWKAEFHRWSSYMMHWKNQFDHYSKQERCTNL

Acetylcholinesterase, sequence (O42275 whole entry): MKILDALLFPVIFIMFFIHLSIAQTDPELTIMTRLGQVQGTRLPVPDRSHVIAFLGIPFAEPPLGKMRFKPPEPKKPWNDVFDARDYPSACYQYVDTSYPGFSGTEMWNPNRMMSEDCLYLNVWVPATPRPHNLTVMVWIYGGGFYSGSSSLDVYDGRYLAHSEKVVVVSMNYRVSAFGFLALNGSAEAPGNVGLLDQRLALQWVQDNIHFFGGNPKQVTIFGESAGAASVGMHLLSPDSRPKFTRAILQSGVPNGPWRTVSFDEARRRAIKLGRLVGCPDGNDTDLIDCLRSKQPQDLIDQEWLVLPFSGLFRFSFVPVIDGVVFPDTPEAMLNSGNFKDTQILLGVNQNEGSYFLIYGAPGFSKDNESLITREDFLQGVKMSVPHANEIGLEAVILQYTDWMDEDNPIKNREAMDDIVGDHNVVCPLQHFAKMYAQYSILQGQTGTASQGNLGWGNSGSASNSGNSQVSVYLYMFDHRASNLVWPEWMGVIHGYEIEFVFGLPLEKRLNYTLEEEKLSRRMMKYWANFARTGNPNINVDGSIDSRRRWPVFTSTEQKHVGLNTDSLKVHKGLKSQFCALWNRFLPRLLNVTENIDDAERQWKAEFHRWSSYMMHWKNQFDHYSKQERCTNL
Cholinesterase, sequence (P81908 whole entry): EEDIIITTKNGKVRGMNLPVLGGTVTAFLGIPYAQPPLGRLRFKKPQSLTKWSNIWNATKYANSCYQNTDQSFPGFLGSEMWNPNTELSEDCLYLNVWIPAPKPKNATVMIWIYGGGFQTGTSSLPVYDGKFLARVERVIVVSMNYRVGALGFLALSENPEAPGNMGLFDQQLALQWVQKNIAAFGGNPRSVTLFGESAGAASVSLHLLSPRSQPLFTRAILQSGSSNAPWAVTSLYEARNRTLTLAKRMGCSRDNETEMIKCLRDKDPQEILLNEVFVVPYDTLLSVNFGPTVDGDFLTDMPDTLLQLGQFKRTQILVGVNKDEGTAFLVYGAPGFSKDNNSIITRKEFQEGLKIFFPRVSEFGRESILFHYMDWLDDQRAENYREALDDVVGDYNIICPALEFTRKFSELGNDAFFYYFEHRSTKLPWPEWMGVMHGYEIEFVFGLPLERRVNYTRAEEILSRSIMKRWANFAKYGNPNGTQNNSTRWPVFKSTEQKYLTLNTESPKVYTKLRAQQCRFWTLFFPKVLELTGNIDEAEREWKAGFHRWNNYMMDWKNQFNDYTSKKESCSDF

In series [1], `COc1ccc2c(c1OC)CO/C(=C\c1cc[n+](Cc3ccc(F)cc3)cc1)C2=O` gave a logP of 2.84. The Ratio IC50 in series [2] was 232. The half-inhibitory concentration (IC50) against Acetylcholinesterase was 8.93 nM; at Cholinesterase it was 2070 nM. The logD in series [3] was determined as 1.45. In series [4], this compound returned a pKa of 8.79. The inhibition result in series [5] was “Active”.

`COc1ccc2c(c1OC)CO/C(=C\c1cc[n+](Cc3ccccc3[N+](=O)[O-])cc1)C2=O`: the Ratio IC50 in series [2] came out at 41.6. Further, the half-maximal inhibitory concentration (IC50) against Acetylcholinesterase is 503 nM; against Cholinesterase, 20900 nM.

Regarding `COc1ccc2c(c1OC)CO/C(=C\c1cc[n+](Cc3cccc(Cl)c3)cc1)C2=O`, the Ratio IC50 in series [2] worked out at 142. Besides, the IC50 was 69.7 nM against Acetylcholinesterase and 9920 nM against Cholinesterase.

As to `COc1cccc(C[n+]2ccc(/C=C3\OCc4c(ccc(OC)c4OC)C3=O)cc2)c1`, the Ratio IC50 in series [2] turned out to be 7. Further, the values for the IC50 on Acetylcholinesterase and against Cholinesterase were 441 nM and 3060 nM, respectively.

Consider `COc1ccc2c(c1OC)CO/C(=C\c1cc[n+](Cc3ccc([N+](=O)[O-])cc3)cc1)C2=O`, for which the half-inhibitory concentration (IC50) is 3550 nM against Acetylcholinesterase and over 100000 nM against Cholinesterase.

Consider `COc1ccc2c(c1OC)CO/C(=C\c1cc[n+](Cc3cccc(F)c3)cc1)C2=O`, for which the Ratio IC50 in series [2] was 359. Moreover, the figures for the half-maximal inhibitory concentration (IC50) at Acetylcholinesterase and against Cholinesterase were 26.3 nM and 9440 nM, respectively.

Turning to `COc1ccc2c(c1OC)CO/C(=C\c1cc[n+](Cc3ccc(Cl)cc3)cc1)C2=O`, in series [2], the Ratio IC50 was 5.5. The IC50 on Acetylcholinesterase was 646 nM; against Cholinesterase, 3560 nM.

As for `COc1ccc2c(c1OC)CO/C(=C\c1cc[n+](Cc3cccc([N+](=O)[O-])c3)cc1)C2=O`, in series [2], the Ratio IC50 is 64. For the same compound, the half-maximal inhibitory concentration (IC50) at Acetylcholinesterase was 456 nM; at Cholinesterase, 29200 nM.

For `COc1ccc2c(c1OC)CO/C(=C\c1cc[n+](Cc3ccccc3)cc1)C2=O`, the logP in series [1] was determined as 2.53. The Ratio IC50 in series [2] was 153. For the same compound, the values for the IC50 against Acetylcholinesterase and against Cholinesterase were 44.8 nM and 6870 nM, respectively. Further, the logD in series [3] was determined as 1.28. In series [4], this compound showed a pKa of 8.68.

For the compound `COc1ccc2c(c1OC)CO/C(=C\c1cc[n+](Cc3ccccc3Cl)cc1)C2=O`, the lipophilicity (logP) in series [1] was 3.2. Moreover, the Ratio IC50 in series [2] was 229. Besides, the half-inhibitory concentration (IC50) against Acetylcholinesterase was found to be 15.9 nM; on Cholinesterase it was 3640 nM. For the same compound, the logD in series [3] was 1.96. In series [4], the pKa is 8.62.

Turning to `COc1ccccc1C[n+]1ccc(/C=C2\OCc3c(ccc(OC)c3OC)C2=O)cc1`, the Ratio IC50 in series [2] was found to be 13. Also, the results for the concentration for half-maximal inhibition (IC50) at Acetylcholinesterase and at Cholinesterase were 640 nM and 8790 nM, respectively.

Take `COc1ccc2c(c1OC)CO/C(=C\c1cc[n+](Cc3ccccc3F)cc1)C2=O`: the Ratio IC50 in series [2] came out at 209. Moreover, the IC50 on Acetylcholinesterase stood at 21.1 nM; on Cholinesterase, 4410 nM.

On to `COc1ccc(C[n+]2ccc(/C=C3\OCc4c(ccc(OC)c4OC)C3=O)cc2)cc1`, for which the Ratio IC50 in series [2] stood at 3.6. The half-maximal inhibitory concentration (IC50) at Acetylcholinesterase was found to be 1190 nM; against Cholinesterase, 4330 nM.
